# US7211572B2 (Japan Tobacco Inc., priority 2003, dated 2007)
# pIC50: −log10 of the molar value. Structures can show the parent of a compound that is named as a salt.
# Target: T1, HIV integrase (Human immunodeficiency virus type 1 group M subtype B, UniProt P12497, F1332H)
# T1 construct: HIV integrase full length gene; made in house; host or cells: Escherichia coli BL21(DE3), plasmid pET21a-INH
# Assay: Determination of enzyme (HIV integrase) inhibitory activity
# Assay type: biochemical
# Conditions: recombinant HIV integrase (F185H), strand transfer ELISA, absorbance at 450 nm
# Outline: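 Full-length integrase with F185H, expressed in E. coli and purified, was reacted for 60 min at 37 °C with compound and biotinylated donor DNA bound to streptavidin plates. Target DNA was added for 10 min, then anti-digoxigenin-peroxidase detection at A450; IC50 from % inhibition versus enzyme-free blank.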
row,SMILES,pIC50
1,"O=C1c2c(O)c(=O)c(NS(=O)(=O)c3ccccc3)cn2CCN1Cc1ccc(F)c(Cl)c1 [Example 418, N-[2-(3-chloro-4-fluorobenzyl)-9-hydroxy-1,8-dioxo-1,3,4,8-tetrahydro-2H-pyrido[1,2-a]pyrazin-7-yl]benzenesulfonamide]",7.00 to 8.00
2,"O=C1c2c(O)c(=O)c(NS(=O)(=O)Cc3ccccc3)cn2CCN1Cc1ccc(F)c(Cl)c1 [Example 419, N-[2-(3-chloro-4-fluorobenzyl)-9-hydroxy-1,8-dioxo-1,3,4,8-tetrahydro-2H-pyrido[1,2-a]pyrazin-7-yl]benzylsulfonamide]",> 8.00
3,"O=C1c2c(O)c(=O)c(NS(=O)(=O)c3cccs3)cn2CCN1Cc1ccc(F)c(Cl)c1 [Example 420, N-[2-(3-chloro-4-fluorobenzyl)-9-hydroxy-1,8-dioxo-1,3,4,8-tetrahydro-2H-pyrido[1,2-a]pyrazin-7-yl]-2-thiophenesulfonamide]",7.00 to 8.00
4,"CS(=O)(=O)c1ccc(CNC(=O)c2cn3c(c(O)c2=O)C(=O)N(Cc2ccc(F)cc2)CC3)cc1 [Example 421, N-(4-methanesulfonylbenzyl)-2-(4-fluorobenzyl)-9-hydroxy-1,8-dioxo-1,3,4,8-tetrahydro-2H-pyrido[1,2-a]pyrazine-7-carboxamide hydrochloride]",7.00 to 8.00
5,"CC(C)(C)C(O)Cc1cc(=O)c(O)c2n1CCN(Cc1ccc(F)cc1)C2=O (stereo not drawn) [Example 422, 2-(4-fluorobenzyl)-9-hydroxy-6-(2-hydroxy-3,3-dimethylbutyl)-3,4-dihydro-2H-pyrido[1,2-a]pyrazine-1,8-dione hydrochloride]",7.00 to 8.00
6,"CC(=O)Nc1cn2c(C)cn(Cc3cccc(Cl)c3)c(=O)c2c(O)c1=O [Example 423, N-[2-(3-chlorobenzyl)-9-hydroxy-4-methyl-1,8-dioxo-1,8-dihydro-2H-pyrido[1,2-a]pyrazin-7-yl]acetamide]",7.00 to 8.00
7,"COCc1c(-c2ccccn2)c(=O)c(O)c2n1CCN(Cc1ccc(F)cc1)C2=O [Example 424, 2-(4-fluorobenzyl)-9-hydroxy-6-methoxymethyl-7-(pyridin-2-yl)-3,4-dihydro-2H-pyrido[1,2-a]pyrazine-1,8-dione hydrochloride]",7.00 to 8.00
8,"COCC(C)(C)C(=O)c1cn2ccn(Cc3ccc(F)cc3)c(=O)c2c(O)c1=O [Example 425, 2-(4-fluorobenzyl)-9-hydroxy-7-(3-methoxy-2,2-dimethylpropionyl)-2H-pyrido[1,2-a]pyrazine-1,8-dione hydrochloride]",> 8.00
9,"COc1ccnc(CNC(=O)c2cn3c(c(O)c2=O)C(=O)N(Cc2ccc(F)cc2)CC3)n1 [Example 426, N-(4-methoxypyrimidin-2-ylmethyl)-2-(4-fluorobenzyl)-9-hydroxy-1,8-dioxo-1,3,4,8-tetrahydro-2H-pyrido[1,2-a]pyrazine-7-carboxamide hydrochloride]",7.00 to 8.00
10,"CC(C)(C)C(=O)Cc1c(C(=O)C(C)(C)C)c(=O)c(O)c2n1CCN(Cc1ccc(F)cc1)C2=O [Example 427, 6-(3,3-dimethyl-2-oxobutyl)-7-(2,2-dimethylpropionyl)-2-(4-fluorobenzyl)-9-hydroxy-3,4-dihydro-2H-pyrido [1,2-a]pyrazine-1,8-dione hydrochloride]",7.00 to 8.00
11,"CC(=O)Nc1ccc(CNC(=O)c2cn3c(c(O)c2=O)C(=O)N(Cc2ccc(F)cc2)CC3)cc1 [Example 428, N-(4-acetylaminobenzyl)-2-(4-fluorobenzyl)-9-hydroxy-1,8-dioxo-1,3,4,8-tetrahydro-2H-pyrido[1,2-a]pyrazine-7-carboxamide]",7.00 to 8.00
12,"O=c1ccn2c(CCO)cn(Cc3ccc(Cl)c(Cl)c3)c(=O)c2c1O [Example 429, 2-(3,4-dichlorobenzyl)-9-hydroxy-4-(2-hydroxyethyl)-2H-pyrido[1,2-a]pyrazine-1,8-dione hydrochloride]",7.00 to 8.00
13,"CCC(O)c1cn(Cc2ccc(Cl)c(Cl)c2)c(=O)c2c(O)c(=O)ccn12 (stereo not drawn) [Example 430, 2-(3,4-dichlorobenzyl)-9-hydroxy-4-(1-hydroxypropyl)-2H-pyrido[1,2-a]pyrazine-1,8-dione]",7.00 to 8.00
14,"O=c1ccn2c(CCCO)cn(Cc3ccc(Cl)c(Cl)c3)c(=O)c2c1O [Example 431, 2-(3,4-dichlorobenzyl)-9-hydroxy-4-(3-hydroxypropyl)-2H-pyrido[1,2-a]pyrazine-1,8-dione]",7.00 to 8.00
15,"CC(C)C(O)c1cn(Cc2ccc(Cl)c(Cl)c2)c(=O)c2c(O)c(=O)ccn12 (stereo not drawn) [Example 432, 2-(3,4-dichlorobenzyl)-9-hydroxy-4-(1-hydroxy-2-methylpropyl)-2H-pyrido[1,2-a]pyrazine-1,8-dione]",> 8.00
